From patent publication US8912338B2, “Pesticidal compositions” (Dow AgroSciences LLC, priority 2010, dated 2014) come the findings set out here.

Broadly, the melting point is the temperature of the solid-liquid transition.

Some results are limits rather than exact numbers.

The test system of data set [1] is Green Peach Aphid (Myzus persicae). The data set is described as follows: Insecticidal test for green peach aphid in foliar spray assay. The conditions noted are these: 72 h, 200 ppm foliar spray on cabbage seedlings, live aphids counted after three days, Abbott's corrected % control, read-out: MYZUPE % Ctrl @ 200 ppm. The data set is classed as in vivo. Here is the method:
Certain molecules disclosed in this document were tested against MYZUPE using procedures described in the following example. In the reporting of the results, the “MYZUPE, APHIGO and BEMITA Rating Table” was used (See Table Section).
Cabbage seedlings grown in 3-inch pots, with 2-3 small (3-5 cm) true leaves, were used as test substrate. The seedlings were infested with 20-50 green peach aphids (wingless adult and nymph stage) one day prior to chemical application. Four pots with individual seedlings were used for each treatment. Compounds (2 mg) were dissolved in 2 mL of acetone/methanol (1:1) solvent, forming stock solutions of 1000 ppm. The stock solutions were diluted 5× with 0.025% Tween 20 in H2O to obtain the test solution at 200 ppm. A hand-held Devilbiss sprayer was used for spraying a solution to both sides of cabbage leaves until runoff. Reference plants (solvent check) were sprayed with the diluent only. Treated plants were held in a holding room for three days at approximately 25° C. and 40% relative humidity (RH) prior to grading. Evaluation was conducted by counting the number of live aphids per plant under a microscope. Insecticidal activity data presented in Table 3 were generated by using Abbott's correction formula: Corrected%Control=100*(X−Y)/X • where X=No. of live aphids on solvent check plants • Y=No. of live aphids on treated plants

Data set [2] has as its system Cotton Aphid (Aphis gossypii). Description: Insecticidal test for cotton aphid in a foliar spray assay. The data set is classed as in vivo. Conditions: 72 h, 200 ppm foliar spray on squash or cotton seedlings, live aphids counted after three days, Abbott's corrected % control, read-out: APHIGO % Ctrl @ 200 ppm. Here is the method:
Squash or cotton seedlings with fully expanded cotyledon leaves were trimmed to one cotyledon per plant and infested with wingless adult and nymph stage cotton aphid (APHIGO) one day prior to chemical application. Each plant was examined before chemical application to ensure uniform infestation (ca. 30-70 aphids per plant). Compounds (2 mg) were dissolved in 2 mL of acetone/methanol (1:1) solvent, forming stock solutions of 1000 ppm. The stock solutions were diluted 5× with 0.025% Tween 20 in H2O to obtain a solution at 200 ppm. A hand-held Devilbiss aspirator type sprayer was used to apply the spray solutions until runoff to both sides of the squash cotyledon leaves. Four plants (4 replications) were used for each concentration of each compound. Reference plants (solvent check) were sprayed with the diluent only. Treated plants were held in a holding room for three days at approximately 25° C. and 40% RH before the number of live cotton aphids on each plant was recorded. Insecticidal activity data presented in Table 3 were generated by using Abbott's correction formula: Corrected%Control=100*(X−Y)/X • where X=No. of live aphids on solvent check plants • Y=No. of live aphids on treated plants

The subject of data set [3] is Sweetpotato Whitefly (Bemisia tabaci). The data set is described as follows: Insecticidal test for sweetpotato whitefly in foliar spray assay. Type of data set: in vivo. The conditions noted are these: 200 ppm foliar spray on cotton plants infested with eggs, live nymphs counted after 8-9 days, Abbott's corrected % control, read-out: BEMITA % Ctrl @ 200 ppm. Here is the method: Cotton plants were used as test substrate and were grown in 3-inch pots and pruned until only 1 small (3-5 cm) true leaf remained. The plants were then placed in a room with whitefly ([…]) adults and allowed to be infested with eggs. After a 2-3 day egg-laying period, plants were taken from the adult whitefly room and the adults were removed from the leaves using compressed air delivered through a hand-held Devilbiss sprayer (23 psi). Plants infested with eggs (100-300 eggs per plant) were placed in a controlled-environment room for 5-6 days at 82° F. and 50% RH until approximately 50% egg hatch. Four cotton plants (4 replicates) were used for each treatment. Compounds (2 mg) were dissolved in 1 mL of acetone solvent, forming stock solutions of 2000 ppm. The stock solutions were diluted 10× with 0.025% Tween 20 in H2O to obtain the test solution of 200 ppm. A hand-held Devilbiss sprayer was used for spraying a solution to both sides of cotton leaf until runoff. Reference plants (solvent check) were sprayed with the diluent only. Treated plants were held in a holding room for 8-9 days at approximately 82° F. and 50% RH prior to grading. Evaluation was conducted by counting the number of live nymphs per plant under a microscope. Insecticidal activity data presented in Table 3 were generated by using Abbott's correction formula: Corrected%Control=100*(X-Y)/X • where X=No. of live nymphs on solvent check plants • Y=No. of live nymphs on treated plants […]

`CN(C(=O)C(C)(C)CO[Si](C)(C)C(C)(C)C)c1nnc(-c2cncc(F)c2)s1` came in with a melting point of 102 to 105 °C.

`CN(C(=O)CCSc1ccccc1)c1nnc(-c2cccnc2)s1` [Compound 10]: the inhibition at 200 ppm was 80 to 100% in data set [1] and 0 to 80% in data set [2].

The compound `CCOC(=O)Nc1nnc(-c2cccnc2)s1` [Compound 14] yielded a melting point of 127 to 132 °C. Also, the inhibition at 200 ppm in data set [1] was below 0%. The inhibition at 200 ppm in data set [2] lay within 0 to 80%.

Turning to `CCOC(=O)N(C)c1nnc(-c2cccnc2)s1` [Compound 15], the melting point lay within 162 to 164 °C. The inhibition at 200 ppm in data set [1] is below 0%. The inhibition at 200 ppm in data set [2] is 0 to 80%.

For `COCCOC(=O)N(C)c1nnc(-c2cccnc2)s1` [Compound 16], the inhibition at 200 ppm in data set [1] is 0 to 80%; in data set [2], 80 to 100%.

Regarding `CS/C=C/C(=O)N(C)c1nnc(-c2cccnc2)s1` [Compound 21, (E)-N-methyl-3-(methylthio)-N-(5-(pyridin-3-yl)-1,3,4-thiadiazol-2-yl)acrylamide], the figures for the inhibition at 200 ppm in data set [1] and in data set [2] were 80 to 100% and 0 to 80%, respectively.

Take `CN(C(=O)CCSC(c1ccccc1)(c1ccccc1)c1ccccc1)c1nnc(-c2cccnc2)s1` [Compound 22, N-methyl-N-(5-(pyridin-3-yl)-1,3,4-thiadiazol-2-yl)-3-(tritylthio)propanamide]: the melting point lay in the range of 60 to 75 °C. Also, in data set [1], the inhibition at 200 ppm was in the range of 0 to 80%. Besides, the inhibition at 200 ppm in data set [2] was below 0%.

`CN(C(=O)CCNC#N)c1nnc(-c2cccnc2)s1` [Compound 23, 3-(cyanoamino)-N-methyl-N-[5-(3-pyridyl)-1,3,4-thiadiazol-2-yl]propanamide] had a melting point of 155 to 159 °C. Besides, the inhibition at 200 ppm in data set [1] lay in the range of 80 to 100%. Moreover, the inhibition at 200 ppm in data set [2] lay in the range of 80 to 100%.

`CN(C(=O)CCS)c1nnc(-c2cccnc2)s1` [Compound 25, 3-mercapto-N-methyl-N-(5-(pyridin-3-yl)-1,3,4-thiadiazol-2-yl)propanamide]: the melting point is 149 to 151 °C. In addition, the inhibition at 200 ppm in data set [1] is 80 to 100%. In data set [2], the inhibition at 200 ppm was 80 to 100%.

In the case of `CC(=O)SCCC(=O)N(C)c1nnc(-c2cccnc2)s1` [Compound 26, S-3-(methyl(5-(pyridin-3-yl)-1,3,4-thiadiazol-2-yl)-amino)-3-oxopropyl ethanethioate], the melting point was 133 to 135 °C. Further, the inhibition at 200 ppm in data set [1] lay within 0 to 80%. Besides, in data set [2], the inhibition at 200 ppm is 0 to 80%.

As to `CN(C(=O)CCSC(F)(F)F)c1nnc(-c2cccnc2)s1` [Compound 27, N-methyl-N-(5-(pyridin-3-yl)-1,3,4-thiadiazol-2-yl)-3-(trifluoromethylthio)propanamide], the inhibition at 200 ppm fell in the range of 0 to 80% in data set [1] and 80 to 100% in data set [2].

Consider `CN(C(=O)CCNC(=O)OCc1ccccc1)c1nnc(-c2cccnc2)s1` [Compound 30], for which the inhibition at 200 ppm was below 0% in data set [1] and 0 to 80% in data set [2].

For `CN(CCC(=O)N(C)c1nnc(-c2cccnc2)s1)C(=O)OCc1ccccc1` [Compound 31], the inhibition at 200 ppm in data set [1] and in data set [2] was below 0% each time.

`CSCC(C)(C)C(=O)Nc1nnc(-c2cccnc2)s1` [Compound 35] returned a melting point of 182 to 188 °C. Besides, in data set [1], the inhibition at 200 ppm was 0 to 80%. Besides, the inhibition at 200 ppm in data set [2] lay in the range of 80 to 100%.

Consider `CC(C)(CS(C)(=O)=O)C(=O)Nc1nnc(-c2cccnc2)s1` [Compound 36], for which the inhibition at 200 ppm in data set [1] lay in the range of 0 to 80%; in data set [2], 80 to 100%.

`CN(C(=O)CCS(=O)(=O)Cc1ccccc1)c1nnc(-c2cccnc2)s1` [Compound 40] had a melting point of 198 to 201 °C. Besides, the inhibition at 200 ppm in data set [1] is below 0%. For the same compound, in data set [2], the inhibition at 200 ppm is below 0%.

`CN(C(=O)CCN)c1nnc(-c2cccnc2)s1` [Compound 41, 3-amino-N-methyl-N-(5-(pyridin-3-yl)-1,3,4-thiadiazol-2-yl)propanamide] registered a melting point of 110 to 112 °C. For the same compound, the inhibition at 200 ppm in data set [1] lay within 0 to 80%. The inhibition at 200 ppm in data set [2] is 80 to 100%.

Consider `CSCCCN(C(C)=O)c1nnc(-c2cccnc2)s1` [Compound 47], for which the results for the inhibition at 200 ppm in data set [1] and in data set [2] were below 0% and 0 to 80%, respectively.

Regarding `CN(C(=O)OCCS(C)(=O)=O)c1nnc(-c2cccnc2)s1` [Compound 52], the melting point lay in the range of 198 to 200 °C. Besides, in data set [1], the inhibition at 200 ppm fell in the range of 0 to 80%. Also, the inhibition at 200 ppm in data set [2] was 0 to 80%.

Take `CSCOC(=O)N(C)c1nnc(-c2cccnc2)s1` [Compound 54, methylthiomethyl methyl(5-(pyridin-3-yl)-1,3,4-thiadiazol-2-yl)carbamate]: the inhibition at 200 ppm in data set [1] is below 0%; in data set [2], 0 to 80%.

The compound `CSC(=O)N(C)c1nnc(-c2cccnc2)s1` [Compound 55, S-methyl methyl(5-(pyridin-3-yl)-1,3,4-thiadiazol-2-yl)carbamothioate] yielded a melting point of 192 to 194 °C. Moreover, the inhibition at 200 ppm in data set [1] was below 0%. In addition, in data set [2], the inhibition at 200 ppm fell in the range of 0 to 80%.

With `CSCC(Cc1ccccc1)C(=O)N(C)c1nnc(-c2cccnc2)s1` (stereo not shown) [Compound 57], the inhibition at 200 ppm in data set [1] and in data set [2] was 0 to 80% each time.

In the case of `CSCCC(=O)N(c1ccccc1)c1nnc(-c2cccnc2)s1` [Compound 58], the melting point was 117 to 120 °C. Besides, the inhibition at 200 ppm in data set [2] was below 0%.

`COC(=O)CCC(=O)N(c1ccccc1)c1nnc(-c2cccnc2)s1` [Compound 59] returned a melting point of 152 to 155 °C. Besides, in data set [1], the inhibition at 200 ppm is below 0%. In addition, in data set [2], the inhibition at 200 ppm was 0 to 80%.

In the case of `CSCCC(=O)N(C)c1nnc(-c2cnccc2C(F)(F)F)s1` [Compound 60], the inhibition at 200 ppm in data set [1] is below 0%; in data set [2], 0 to 80%.

For `CSCCN(C)C(=O)N(C)c1nnc(-c2cncc(F)c2)s1` [Compound 83, 1-[5-(5-fluoro-pyridin-3-yl)-[1,3,4]thiadiazol-2-yl]-1,3-dimethyl-3-(2-methylsulfanyl-ethyl)-urea], the inhibition at 200 ppm was in the range of 80 to 100% in data set [1] and 0 to 80% in data set [3].

With `CSCCNC(=S)N(C)c1nnc(-c2cncc(F)c2)s1` [Compound 86, 1-[5-(5-fluoro-pyridin-3-yl)-[1,3,4]thiadiazol-2-yl]-1-methyl-3-(2-methylsulfanyl-ethyl)-thiourea], the inhibition at 200 ppm in data set [1] and in data set [3] was 80 to 100% in each case.

Regarding `CCOC(=O)N(C)c1nnc(-c2cncc(F)c2)s1` [Compound 87], the inhibition at 200 ppm in data set [3] lay in the range of 80 to 100%.

In the case of `CSCCC(=O)N(C)c1nnc(-c2ccncc2)s1` [Compound 96], the melting point lay in the range of 152 to 154 °C. In addition, the inhibition at 200 ppm in data set [2] fell in the range of 0 to 80%.

The compound `COC(=O)CCC(=O)N(C)c1nnc(-c2ccncc2)s1` [Compound 97] gave a melting point of 175 to 177 °C. In addition, the inhibition at 200 ppm in data set [1] is below 0%. In addition, in data set [2], the inhibition at 200 ppm was 0 to 80%.

Consider `CSCCC(=O)N(CC1CC1)c1nnc(-c2cccnc2)s1` [Compound 98], for which the inhibition at 200 ppm in data set [1] is 80 to 100%; in data set [3], below 0%.
